How the values were obtained:
Assay in all cases: relative viability (nuclei count vs DMSO), 5 days (fraction); higher = more cells survive
[1] = tested on: NCI-H322M
How it was run: (§1)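 Each reported value is a median over duplicate plates. It expresses relative viability: treated-well nuclei count divided by vehicle-well nuclei count. Lung cancer cell lines in 1536-well plates were dosed by pin tool a day after seeding, alone with one drug or with a fixed anchor-drug dose plus five library-drug doses (not always all listed) in √10 steps, and nuclei were counted after 5 days.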

[2] = tested on: 201T
How it was run: as §1

[3] = tested on: HCC-827
How it was run: as §1

[4] = tested on: NCI-H650
How it was run: as §1

[5] = tested on: EPLC-272H
How it was run: as §1

[6] = tested on: NCI-H2126
How it was run: as §1

[7] = tested on: NCI-H647
How it was run: as §1

[8] = tested on: NCI-H661
How it was run: as §1

[9] = tested on: COR-L 105
How it was run: as §1

[10] = tested on: LC-2-ad
How it was run: as §1

[11] = tested on: NCI-H23
How it was run: as §1

[12] = tested on: LCLC-97TM1
How it was run: as §1

[13] = tested on: RERF-LC-KJ
How it was run: as §1

[14] = tested on: NCI-H1915
How it was run: as §1

[15] = tested on: H3255
How it was run: as §1

[16] = tested on: NCI-H2405
How it was run: as §1

[17] = tested on: NCI-H2087
How it was run: as §1

[18] = tested on: NCI-H2347
How it was run: as §1

[19] = tested on: NCI-H520
How it was run: as §1

[20] = tested on: PC-14
How it was run: as §1

[21] = tested on: ChaGo-K-1
How it was run: as §1

[22] = tested on: NCI-H1666
How it was run: as §1

[23] = tested on: HCC-78
How it was run: as §1

CC1(C)CCC(c2ccc(Cl)cc2)=C(CN2CCN(c3ccc(C(=O)NS(=O)(=O)c4ccc(N[C@H](CCN5CCOCC5)CSc5ccccc5)c(S(=O)(=O)C(F)(F)F)c4)cc3)CC2)C1 [Navitoclax] + Nc1ncn([C@H]2C[C@H](O)[C@@H](CO)O2)c(=O)n1 [Decitabine] (partner 2 µM) was tested, and the relative viability ([1]; first compound 0.005 µM) was 0.722, the relative viability ([1]; first compound 0.01581 µM) was 0.863 and the relative viability ([1]; first compound 0.05 µM) was 0.703. The relative viability ([1]; first compound 0.1581 µM) was 0.655, the relative viability ([1]; first compound 0.5 µM) was 0.725 and the relative viability ([2]; first compound 0.005 µM) was 0.891. It also gave a relative viability ([2]; first compound 0.01581 µM) of 0.869, a relative viability ([2]; first compound 0.05 µM) of 0.77 and a relative viability ([2]; first compound 0.1581 µM) of 0.824. For the same compound, the relative viability ([2]; first compound 0.5 µM) was 0.859, the relative viability ([3]; first compound 0.005 µM) was 0.364 and the relative viability ([3]; first compound 0.01581 µM) was 0.325. The relative viability ([3]; first compound 0.05 µM) was 0.314, the relative viability ([3]; first compound 0.1581 µM) was 0.327 and the relative viability ([3]; first compound 0.5 µM) was 0.31. It also gave a relative viability ([4]; first compound 0.005 µM) of 0.331, a relative viability ([4]; first compound 0.01581 µM) of 0.298 and a relative viability ([4]; first compound 0.05 µM) of 0.32. The relative viability ([4]; first compound 0.1581 µM) was 0.336, the relative viability ([4]; first compound 0.5 µM) was 0.264 and the relative viability ([5]; first compound 0.005 µM) was 0.346. For the same compound, the relative viability ([5]; first compound 0.05 µM) was 0.377, the relative viability ([5]; first compound 0.1581 µM) was 0.302 and the relative viability ([5]; first compound 0.5 µM) was 0.38. It also gave a relative viability ([6]; first compound 0.005 µM) of 0.595, a relative viability ([6]; first compound 0.01581 µM) of 0.647 and a relative viability ([6]; first compound 0.05 µM) of 0.522. It also gave a relative viability ([6]; first compound 0.1581 µM) of 0.547, a relative viability ([6]; first compound 0.5 µM) of 0.564 and a relative viability ([7]; first compound 0.005 µM) of 0.403. It also gave a relative viability ([7]; first compound 0.01581 µM) of 0.413, a relative viability ([7]; first compound 0.05 µM) of 0.409 and a relative viability ([7]; first compound 0.1581 µM) of 0.275. For the same compound, the relative viability ([7]; first compound 0.5 µM) was 0.32, the relative viability ([8]; first compound 0.005 µM) was 0.556 and the relative viability ([8]; first compound 0.01581 µM) was 0.595. For the same compound, the relative viability ([8]; first compound 0.05 µM) was 0.545, the relative viability ([8]; first compound 0.1581 µM) was 0.547 and the relative viability ([8]; first compound 0.5 µM) was 0.567. The relative viability ([9]; first compound 0.005 µM) was 0.737, the relative viability ([9]; first compound 0.01581 µM) was 0.89 and the relative viability ([9]; first compound 0.05 µM) was 0.6. The relative viability ([9]; first compound 0.1581 µM) was 0.662, the relative viability ([9]; first compound 0.5 µM) was 0.537 and the relative viability ([10]; first compound 0.005 µM) was 0.793. It also gave a relative viability ([10]; first compound 0.01581 µM) of 0.72, a relative viability ([10]; first compound 0.05 µM) of 0.673 and a relative viability ([10]; first compound 0.1581 µM) of 0.701. The relative viability ([10]; first compound 0.5 µM) was 0.774, the relative viability ([11]; first compound 0.005 µM) was 0.287 and the relative viability ([11]; first compound 0.01581 µM) was 0.32. It also gave a relative viability ([11]; first compound 0.05 µM) of 0.307, a relative viability ([11]; first compound 0.1581 µM) of 0.331 and a relative viability ([11]; first compound 0.5 µM) of 0.272. For the same compound, the relative viability ([12]; first compound 0.005 µM) was 0.229, the relative viability ([12]; first compound 0.01581 µM) was 0.268 and the relative viability ([12]; first compound 0.05 µM) was 0.224. It also gave a relative viability ([12]; first compound 0.1581 µM) of 0.217, a relative viability ([12]; first compound 0.5 µM) of 0.271 and a relative viability ([13]; first compound 0.005 µM) of 0.834. The relative viability ([13]; first compound 0.01581 µM) was 0.55, the relative viability ([13]; first compound 0.05 µM) was 0.669 and the relative viability ([13]; first compound 0.1581 µM) was 0.733. The relative viability ([13]; first compound 0.5 µM) was 0.708, the relative viability ([14]; first compound 0.005 µM) was 0.263 and the relative viability ([14]; first compound 0.01581 µM) was 0.242. For the same compound, the relative viability ([14]; first compound 0.05 µM) was 0.274, the relative viability ([14]; first compound 0.1581 µM) was 0.247 and the relative viability ([14]; first compound 0.5 µM) was 0.25. The relative viability ([15]; first compound 0.005 µM) was 0.503, the relative viability ([15]; first compound 0.01581 µM) was 0.668 and the relative viability ([15]; first compound 0.05 µM) was 0.567. The relative viability ([15]; first compound 0.1581 µM) was 0.596, the relative viability ([15]; first compound 0.5 µM) was 0.519 and the relative viability ([16]; first compound 0.005 µM) was 0.75. The relative viability ([16]; first compound 0.01581 µM) was 0.812, the relative viability ([16]; first compound 0.05 µM) was 0.885 and the relative viability ([16]; first compound 0.1581 µM) was 0.717. The relative viability ([16]; first compound 0.5 µM) was 0.771, the relative viability ([17]; first compound 0.005 µM) was 0.277 and the relative viability ([17]; first compound 0.01581 µM) was 0.314. It also gave a relative viability ([17]; first compound 0.1581 µM) of 0.231, a relative viability ([17]; first compound 0.5 µM) of 0.266 and a relative viability ([18]; first compound 0.005 µM) of 0.668. It also gave a relative viability ([18]; first compound 0.01581 µM) of 0.551, a relative viability ([18]; first compound 0.05 µM) of 0.574 and a relative viability ([18]; first compound 0.1581 µM) of 0.654. It also gave a relative viability ([18]; first compound 0.5 µM) of 0.582, a relative viability ([19]; first compound 0.005 µM) of 0.432 and a relative viability ([19]; first compound 0.01581 µM) of 0.48. For the same compound, the relative viability ([19]; first compound 0.05 µM) was 0.423, the relative viability ([19]; first compound 0.1581 µM) was 0.487 and the relative viability ([19]; first compound 0.5 µM) was 0.489. The relative viability ([20]; first compound 0.005 µM) was 0.237, the relative viability ([20]; first compound 0.01581 µM) was 0.2 and the relative viability ([20]; first compound 0.05 µM) was 0.228. The relative viability ([20]; first compound 0.1581 µM) was 0.211, the relative viability ([20]; first compound 0.5 µM) was 0.19 and the relative viability ([21]; first compound 0.005 µM) was 0.498. The relative viability ([21]; first compound 0.01581 µM) was 0.549, the relative viability ([21]; first compound 0.05 µM) was 0.392 and the relative viability ([21]; first compound 0.1581 µM) was 0.498. It also gave a relative viability ([21]; first compound 0.5 µM) of 0.52, a relative viability ([22]; first compound 0.005 µM) of 0.781 and a relative viability ([22]; first compound 0.01581 µM) of 0.759. The relative viability ([22]; first compound 0.05 µM) was 0.628, the relative viability ([22]; first compound 0.1581 µM) was 0.692 and the relative viability ([22]; first compound 0.5 µM) was 0.765. For the same compound, the relative viability ([23]; first compound 0.005 µM) was 0.759, the relative viability ([23]; first compound 0.01581 µM) was 0.732 and the relative viability ([23]; first compound 0.05 µM) was 0.605. The relative viability ([23]; first compound 0.1581 µM) was 0.636 and the relative viability ([23]; first compound 0.5 µM) was 0.798.

Source: the supplement of paper PMC10307832
